Results: patent US20250108023A1, “Products for Masking Bitterness” (The Third People's Hospital of Henan Province, priority 2023, published 2025)
Read-outs that look alike come from different tables or passages of the source.

Assays:
[1] = Broad-spectrum taste masking test on decoctions of extremely bitter Chinese herbal medicine slices; type: in vivo, healthy volunteers; set-up: key: reduction in bitterness degrees on a 5-degree graduation scale; settings: 0.1% taste masking agent in 40% ethanol
Method: According to the standard of decocting 100 ml of liquid from 10 g of dry Chinese herbal medicine slices (decoction method: use a stainless steel container, and keep for 20 minutes after boiling), from 300 commonly used Chinese herbal medicine slices, combined with the Chinese Pharmacopoeia, more than 20 Chinese herbal medicines with bitter or extremely bitter properties written in the pharmacopoeia were selected, including Bletilla striata, Cortex qin, Stephania tetrandra, Apricot kernel, Belamcanda chinensis, Angelica dahurica, Lotus seed heart, Toosendan fruit, Andrographis paniculata, Sophora flavescens, Coptis chinensis, Gentiana scabra, Forsythia suspensa, Sophora japonica, Phellodendron amurense, Scutellaria baicalensis, Platycodon grandiflorum, Notopterygium wilfordii, Saposhnikovia divaricata, Perilla frutescens, Zanthoxylum bungeana, Osmanthus fragrans, Sophora flavescens, and Chrysanthemum officinale, totally 24 kinds of Chinese herbal medicines.
Finally, through the 5-degree graduation method, 2 species with a bitterness higher than 3.5 (moderate bitterness) and 7 species with a bitterness higher than 5 degrees (highly bitter, extremely bitter, accompanied by nausea) were screened out, a total of 9 species (Angelica pubescens, Lotus Seed Heart, Toosendan, Andrographis paniculata, Sophora flavescens, Coptis chinensis, Gentiana scabra, Forsythia suspensa, Sophora japonica) are selected as bitterness representatives to participate in the bitterness masking experiment. (Note: The bitterness of Coptis chinensis slices can reach 5.2 after 20 minutes of water decoction. The reference standard solution is 90-degree water brewing Coptis chinensis powder, it is automatically cooled to obtain a solution with a bitter taste of 4.0. Because Coptis chinensis has been used as a standard bitter liquid, it is no longer used).
The experimental method is the same as the previous part.

[2] = Oral spray bitterness masking taste test by volunteers with Coptis chinensis standard bitter solution; type: in vivo, healthy volunteers; set-up: key to bitterness value after drug: bitterness value 0.5–5.5; 1 = none, 5 = unbearable; key to Reduction of bitterness: drop in bitterness value (0.5–5.5 scale) from initial; settings: for Duration >: retention time until bitterness rises; for inhibition in vivo at 0.2 %: Homo sapiens, read-out: Reduction range; for bitterness value after drug: initial bitterness 4.0, 16 cases
Method: Purpose of the experiment: it is to screen out compounds that take effect within 5 seconds, last for 30-120 seconds, and it is expected, by using such kind of compounds, the taste of the drug cannot be felt during the duration (30-120 seconds) when taking the drug.
Principle of the experiment: simulate the process of taking medicine and using the taste masking agents, first spray about 0.5 ml of oral spray on the throat (3 times), and after it takes effect quickly, taste 10 ml of bitter standard solution to screen drugs that can be used in advance and can mask the bitter taste.
• 1: Volunteer screening. The research team strictly screened the recruited volunteers and finally selected healthy volunteers as subjects. They signed informed consent forms before the experiment; • 2: Standard bitterness sample preparation. The bitterness of the samples was divided into five levels, and each level was assigned a certain bitterness value range; • 3: The sensory standard was corrected by the oral taste evaluation method, that is, the sensory standard was corrected by comparing the taste evaluation of the volunteers with the established bitterness value of the reference sample group. Specific steps: when the volunteers are doing the oral tasting test, the reference solutions of various concentrations are placed in the tasting cups, and the volunteers hold one of the solutions in their mouths, time it, and rinse their mouths by using the solution so that the bitter taste perception area at the root and sides of the tongue can fully feel the bitter taste of the drug. […] Then dilute all the selected taste masking drugs, prepare the solution, take 10 ml and put it into the spray bottle, spray it into the mouth 3 times, stay for 5 seconds, drink 10 ml of standard bitterness solution, feel and record the bitterness value, keep the standard bitterness solution in the mouth until the bitterness rises, and record the retention time. • 5: Quality control. […] Since the experimental objects are biological samples and there are individual differences between different subjects, there may be individual outliers in the experimental test data. The Grubbs test method was used to exclude outliers in the data, and then the experimental data were plotted in tables and curves for data analysis.
It is necessary to process the experimental data. Specifically, the Grubbs test method was used to perform a circular test and elimination of outliers on the data, and a bilateral test was used to eliminate outliers in the oral test. Considering the characteristics of biological samples, the detection level was selected as 0.1 and the elimination level was selected as 0.05 in this experiment.
The experimental medicinal material processing method mentioned in the above technical scheme is as follows: Preparation of bitter standard solution, use 10 g of Coptis chinensis powder, add 100 ml of pure water above 90 degrees, stir, let stand for 20 minutes, take the supernatant for use, determine the standard bitterness of 4.0 degrees by oral tasting, dilute 5 times, determine the standard bitterness of 2.0 degrees, dilute 2.0 degrees again 5 times, determine the standard bitterness of 0.5 degrees. Compare with the bitterness scoring table, (level 1 means “no bitterness or almost no bitterness”, the bitterness value is 0.5˜1.5; level 2 means “slightly bitter”, the bitterness value is 1.5˜2.5; level 3 means “bitter but acceptable”, the bitterness value is 2.5˜3.5; level 4 means “very bitter, but still tolerable”, the bitterness value is 3.5˜4.5; level 5 means “unbearable bitterness”, the bitterness value is 4.5˜5.5). Adjust the judgment and cognition of bitterness.
The standard bitterness solution used in this experiment to verify the experimental effect is a 4.0 degree bitterness solution of Coptis chinensis prepared according to the above method.

[3] = Andrographis paniculata, original bitterness 5
[4] = Forsythia suspensa, original bitterness 3
[5] = Gentiana, original bitterness 5
[6] = Lotus seed heart, original bitterness 5
[7] = Sophora flavescens, original bitterness 5
[8] = Toulianzi, original bitterness 5
[9] = 0.2% solution in 60% ethanol as oral spray
[10] = 0.2% solution in 60% ethanol as oral spray, relative to original bitterness 4.0
[11] = concentration 0.001% in 60% ethanol
[12] = concentration 0.005% in 60% ethanol
[13] = concentration 0.02% in 60% ethanol
[14] = concentration 0.10% in 60% ethanol
[15] = concentration 0.50% in 60% ethanol

Structure (SMILES)	Bitterness reduction value [1, 3]	Bitterness reduction value [1, 4]	Bitterness reduction value [1, 5]	Bitterness reduction value [1, 6]	Bitterness reduction value ([1]; Puhuo, original bitterness 5)	Bitterness reduction value [1, 7]	Bitterness reduction value [1, 8]	Duration > [2, 9] [s]	inhibition in vivo at 0.2 % [2, 10] [%]	bitterness value after drug [2, 11]	bitterness value after drug [2, 12]	bitterness value after drug [2, 13]	bitterness value after drug [2, 14]	bitterness value after drug [2, 15]	Reduction of bitterness ([2]; 0.2% solution in 60% ethanol as oral spray, original bitterness average 4.0, average of 31 cases)	Reduction range [2, 10] [%]	inhibition in vivo at 0.2 % ([2]; po) [%]
O=CC=Cc1ccccc1 [Cinnamaldehyde, 3-phenyl-2-propenal]	4	1.7	4.2	2.3	4.2	2.3	3.5	> 50	72.5	3.5	2.6	1.5	1.1	1.2	–	–	–
CC(C)=CCCC(C)=CC=O [Citral, citral]	1.5	2.5	3.7	3.5	3.75	1.7	1.5	> 30	57.5	3.7	2.8	2.1	1.7	1.9	–	–	–
C=CCc1ccc(OC(C)=O)c(OC)c1 [Eugenol acetate]	–	–	–	–	–	–	–	> 60	60	3.8	3.2	2.3	1.6	1.4	–	–	–
CCCCC[C@H](O)CC(=O)CCc1ccc(O)c(OC)c1 [Gingerol, 6-gingerol]	–	–	–	–	–	–	–	> 20	55	4	2.4	2.1	1.8	1.8	–	–	–
C=CC(C)(O)CCC=C(C)C (centres unmarked) [Linalool, linalool]	0.8	2	1.2	1.6	2.5	0.5	1.1	> 30	52.5	3.5	2.5	2.1	1.9	1.9	–	–	–
CC1CCC(C(C)C)C(=O)C1 (centres unmarked) [Menthone, 5-methyl-2-isopropylcyclohexanone]	–	–	–	–	–	–	–	> 30	70	2.5	2.1	1.4	1.2	1.1	–	–	–
CC(C)[C@@H]1CC[C@@H](C)C[C@H]1OC(=O)CCC(=O)O [Menthyl succinate]	–	–	–	–	–	–	–	> 10	–	3.2	2.8	2.6	2.4	2.1	1.6	40.00	–
COc1cc(C(=O)O)ccc1O [Vanillic acid, 3-methoxy-4-hydroxybenzoic acid]	–	–	–	–	–	–	–	> 50	27.5	–	–	–	–	–	–	–	–
COc1ccc(CCN(C)CCCC(C#N)(c2ccc(OC)c(OC)c2)C(C)C)cc1OC (centres unmarked) [Verapamil, 5-((3,4-dimethoxyphenylethyl)methylamino)-2-(3,4-dimethoxyphenyl)-2-isopropylvaleronitrile, reference compound]	–	–	–	–	–	–	–	–	–	–	–	–	–	–	–	–	0
